Results published in PubChem BioAssay (NCI).
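Grown in 96-well plates, cells were treated for 48 hours with each compound at five concentrations. Insufficient inhibition: endpoint recorded as highest concentration tested. Abbreviation: GI50, concentration required for 50% inhibition of growth. Definition used: TGI = concentration required for complete inhibition of growth.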

Assays:
Test in all cases: NCI tumour cell line growth inhibition, 48 h
[1] = test system: HL-60(TB) leukemia
[2] = test system: NCI/ADR-RES ovarian
[3] = test system: SF-295 CNS
[4] = test system: SK-MEL-28 melanoma
[5] = test system: UO-31 renal
[6] = test system: DLD-1 colon
[7] = test system: SNB-78 CNS
[8] = test system: KM20L2 colon
[9] = test system: LXFL 529 NSCLC

SMILES	GI50 [1]	TGI [1]	GI50 [2]	TGI [2]	GI50 [3]	TGI [3]	GI50 [4]	TGI [4]	GI50 [5]	TGI [5]	TGI [6]	TGI [7]	TGI [8]	TGI [9]
CCOC(=O)C1=C(N)Oc2c(sc3c(C)cccc23)C1c1ccc(F)cc1 (stereo not given)	0.374 µM	4.62 µM	0.384 µM	14.5 µM	0.297 µM	2.41 µM	8.71 µM	22.1 µM	0.583 µM	18.3 µM	–	–	–	–
CNC(C)[C@H]1CCC2C3CC=C4C(=O)[C@@H](NC(=O)C=C(C)C)CC[C@]4(C)C3CC[C@@]21C (stereo not given in full)	1.83 µM	4.75 µM	3.44 µM	15 µM	1.63 µM	4.41 µM	1.69 µM	3.3 µM	1.33 µM	3.14 µM	–	–	–	–
COc1ccc2c(c1)C(C)Cc1c(ncnc1-n1cnc3ccccc31)N2C (stereo not given)	0.352 µM	3.74 µM	0.395 µM	> 100 µM	0.292 µM	10.2 µM	10.1 µM	22.9 µM	0.72 µM	19.2 µM	–	–	–	–
COC(=O)[C@]12CC[C@@H](C)[C@H](C)[C@@H]1C1=CC[C@@H]3[C@@]4(C)C(C=O)=C[C@@](C)(COC(=O)c5ccco5)[C@@H]4[C@H](O)C[C@@]3(C)[C@]1(C)CC2	2.33 µM	5.84 µM	2.76 µM	12 µM	1.95 µM	4.69 µM	0.0918 µM	2.64 µM	1.66 µM	3.48 µM	–	–	–	–
COc1cc(C(=O)O[C@H](C(N)=O)[C@]2(C)CO2)c2cccc(C)c2c1	–	–	0.108 µM	0.507 µM	< 0.0417 µM	1.84 µM	0.0744 µM	1.7 µM	0.0404 µM	0.33 µM	–	–	–	–
c1ccc(NCCSc2nc3ccccc3s2)cc1	–	> 100 µM	–	> 100 µM	–	> 100 µM	–	> 100 µM	–	> 100 µM	–	–	–	–
O=C(NC1CCCCC1)c1ccc(Nc2ncnc3c2cnn3-c2ccccc2)cc1	–	–	7.06 µM	> 100 µM	2.98 µM	13.3 µM	3.79 µM	> 100 µM	23.9 µM	> 100 µM	–	–	–	–
Cn1c(=S)c2[nH]c(SCCCc3ccccc3)nc2n(C)c1=O	–	> 100 µM	–	> 100 µM	–	79.9 µM	–	> 100 µM	–	64.4 µM	–	–	–	–
COc1cc2c3c(n(CCCN(CCO)CCO)c(=O)c2cc1OC)-c1cc2c(cc1C3=O)OCO2	< 0.01 µM	2.29 µM	0.117 µM	–	< 0.01 µM	0.288 µM	2.27 µM	26.6 µM	–	–	–	–	–	–
COc1cc(/C=C2\CCC/C(=C\c3ccc(OCC4CO4)c(OC)c3)C2=O)ccc1OCC1CO1 (stereo not given)	3.59 µM	> 100 µM	4.86 µM	> 100 µM	4.35 µM	84.4 µM	1.81 µM	3.43 µM	2.51 µM	7.94 µM	–	–	–	–
COc1ccc(-c2nn(-c3cccc(Cl)c3)cc2-c2nc(N)[nH]c(=O)c2C#N)cc1	3.96 µM	14.2 µM	3.33 µM	15.9 µM	2.36 µM	9.23 µM	4.98 µM	27.9 µM	2.94 µM	47.8 µM	–	–	–	–
COc1cc(/C=C/C(=O)C(C(=O)/C=C/c2ccc(OC(=O)CCNC34CC5CC(CC(C5)C3)C4)c(OC)c2)C(=O)CCNC23CC4CC(CC(C4)C2)C3)ccc1OC(=O)CCNC12CC3CC(CC(C3)C1)C2 (stereo not given)	1.95 µM	4.36 µM	4.82 µM	90.2 µM	17.2 µM	34.4 µM	1.67 µM	4.28 µM	2.71 µM	18.7 µM	–	–	–	–
Nc1c(C(=O)Nc2ccccc2Cl)sc2nc3c(cc12)C(=O)CCC3	3.72 µM	> 100 µM	5.34 µM	> 100 µM	0.542 µM	> 27.5 µM	22.4 µM	> 100 µM	> 100 µM	> 100 µM	–	–	–	–
CN1C(NNC(=O)c2cccnc2)=NS(=O)(=O)c2cc(Cl)ccc21	> 100 µM	> 100 µM	> 100 µM	> 100 µM	> 100 µM	> 100 µM	> 100 µM	> 100 µM	> 100 µM	> 100 µM	–	–	–	–
CC1(C)N=C(N)N=C(N)N1c1cccc(OCCOc2cccc([N+](=O)[O-])c2)c1	1.18 µM	> 77.8 µM	> 100 µM	> 100 µM	15 µM	> 100 µM	7.86 µM	> 100 µM	> 100 µM	> 100 µM	–	–	–	–
O=C1C=C(Nc2ccc(S(=O)(=O)Nc3nccs3)cc2)c2ccccc2C1=O	–	59.8 µM	–	95.3 µM	–	32.3 µM	–	45.2 µM	–	> 100 µM	–	–	–	–
C=C1C(=O)OC2C1CC(OC(C)=O)/C(C)=C/CCC1(C)OC21 (stereo not given)	–	> 100 µM	–	> 100 µM	–	> 100 µM	–	> 100 µM	–	> 100 µM	–	–	–	–
NCCCn1c2c(c3ccccc3c1=O)C(=O)c1ccccc1-2	–	–	0.145 µM	2.68 µM	0.0709 µM	0.55 µM	0.842 µM	3.03 µM	0.248 µM	16.5 µM	–	–	–	–
Oc1ccc(/C=C/c2cc(O)cc3c2C(c2cc(O)cc(O)c2)C(c2ccc(O)c(O)c2)O3)cc1 (stereo not given)	–	54.5 µM	–	> 100 µM	–	> 100 µM	–	> 100 µM	–	> 100 µM	–	–	–	–
CCOC(=O)c1sc(NC(=O)COc2cccc(/C=C3\CCc4cc(OC)ccc4C3=O)c2)nc1C	1.94 µM	4.92 µM	4.84 µM	> 100 µM	5.45 µM	> 100 µM	18.2 µM	> 100 µM	5.99 µM	> 100 µM	–	–	–	–
Cc1ccc(NC(=O)C(=O)C2C(=O)NC(=O)NC2=O)cc1C	–	> 100 µM	–	–	–	> 100 µM	–	> 100 µM	–	> 100 µM	> 100 µM	> 100 µM	> 100 µM	> 100 µM
O=C1/C(=C/N2N=C(c3ccc4ccccc4c3)CC2c2ccccc2O)SC(=S)N1c1cccnc1 (stereo not given)	0.616 µM	> 100 µM	3.43 µM	> 100 µM	2.63 µM	> 100 µM	–	–	0.852 µM	> 100 µM	–	–	–	–
O=C(Nc1ccc(Cl)cc1)Nc1nccs1	2.3 µM	10.2 µM	0.575 µM	30.1 µM	2.73 µM	34.7 µM	13.8 µM	> 100 µM	4.29 µM	> 100 µM	–	–	–	–
Oc1ccc(N=Nc2nccs2)c(O)c1	3.41 µM	> 100 µM	2.58 µM	9.1 µM	2.73 µM	15.1 µM	10.4 µM	30.7 µM	3.51 µM	21.8 µM	–	–	–	–
NCCCOc1cc(Cl)ccc1NC(=O)c1cc2ccccc2cc1OCCCN	0.665 µM	2.39 µM	1.97 µM	4.25 µM	1.66 µM	3.42 µM	1.81 µM	3.23 µM	1.2 µM	2.65 µM	–	–	–	–

SMILES	GI50 [1]	TGI [1]	GI50 [2]	TGI [2]	GI50 [3]	TGI [3]	GI50 [4]	TGI [4]	GI50 [5]	TGI [5]	TGI [6]	TGI [7]	TGI [8]	TGI [9]
COc1ccc(-c2cc(-c3ccc(Nc4ccnc5cc(Cl)ccc45)cc3)nc(N3CCOCC3)n2)cc1	4.8 µM	> 100 µM	3.01 µM	> 100 µM	–	–	–	–	> 100 µM	> 100 µM	–	–	–	–
CC(Cl)CN1c2ccccc2Sc2ccc(Cl)cc21 (stereo not given)	–	> 10 µM	–	> 10 µM	–	> 10 µM	–	> 10 µM	–	> 10 µM	–	–	–	–
COc1cc(OC)c2sc(-c3ccc(-n4cncc4-c4cc(OC)c(OC)c(OC)c4)cc3)nc2c1	3.3 µM	> 100 µM	5.65 µM	> 100 µM	4.42 µM	> 100 µM	–	–	2.27 µM	> 100 µM	–	–	–	–
Cn1cc(-c2csc(-c3cn(C)c4ccc(F)cc34)n2)c2cnccc21	1.93 µM	3.87 µM	2.03 µM	4.02 µM	1.71 µM	3.23 µM	1.79 µM	3.22 µM	1.64 µM	3.09 µM	–	–	–	–
NC(=O)CNc1ccc([As]=[As]c2ccc(NCC(N)=O)cc2)cc1 (stereo not given)	1.75 µM	9.26 µM	9.13 µM	> 100 µM	8.91 µM	36.9 µM	4.01 µM	17.6 µM	8.21 µM	24.5 µM	–	–	–	–
Clc1nc(Cl)c2ncn(Cc3ccccc3Cn3cnc4c(Cl)nc(Cl)nc43)c2n1	1.79 µM	9.14 µM	7.04 µM	17.2 µM	7.05 µM	22.4 µM	2.96 µM	11.8 µM	1.91 µM	3.85 µM	–	–	–	–
Cc1cc(NCCCCNc2ccnc3cc(Cl)ccc23)nc(Nc2ccc(C(=O)N3CCCCC3)cc2)n1	–	–	3.04 µM	11.4 µM	1.67 µM	3.25 µM	1.68 µM	3.37 µM	–	–	–	–	–	–
Cc1c2c(C(N)=O)nccc2c(C)c2c1c1ccccc1n2Cc1ccccc1	–	47 µM	–	27.9 µM	–	31.2 µM	–	> 100 µM	–	37.6 µM	–	–	–	–
COc1ccc(-c2ccc(NNC(=O)c3ccc(F)cc3)nn2)cc1OC	33.5 µM	> 100 µM	43.2 µM	> 100 µM	> 100 µM	> 100 µM	> 100 µM	> 100 µM	31.7 µM	> 100 µM	–	–	–	–
C=C1C(O)C2C(=C(C)C13CC3)C(=O)C(C)(C)C2OC (stereo not given)	–	–	> 100 µM	> 100 µM	> 100 µM	> 100 µM	> 100 µM	> 100 µM	> 100 µM	> 100 µM	–	–	–	–
c1ccc2c(c1)c1ccccc1c1ccccc21	> 100 µM	> 100 µM	> 100 µM	> 100 µM	–	–	> 100 µM	> 100 µM	> 100 µM	> 100 µM	–	–	–	–
N#CC(C#N)=C1CCCOc2c1ccc1ccccc21	16.7 µM	36 µM	> 100 µM	> 100 µM	> 100 µM	> 100 µM	> 100 µM	> 100 µM	> 100 µM	> 100 µM	–	–	–	–
COc1ccc(-c2noc(N)c2-c2cc(OC)c3c(c2)OCO3)cc1	1.64 µM	7.6 µM	0.721 µM	–	2.64 µM	28.6 µM	6.31 µM	> 100 µM	7.39 µM	> 100 µM	–	–	–	–
CC1=NC(C)(COC(=O)C2(C)NC(C)(CO)CO2)COC1=O (stereo not given)	–	> 100 µM	–	> 100 µM	–	> 100 µM	–	> 100 µM	–	> 100 µM	–	–	–	–
COC(=O)C(=O)CC(=O)c1cccc(OC)c1	–	> 100 µM	–	> 100 µM	–	> 100 µM	–	> 100 µM	–	> 100 µM	–	–	–	–
O=C(NNc1cnccn1)c1nc2cc(F)ccc2n2cccc12	0.346 µM	2.82 µM	0.461 µM	> 44.8 µM	0.531 µM	> 100 µM	1.08 µM	> 100 µM	0.261 µM	> 100 µM	–	–	–	–
O=[N+]([O-])c1ccc(Sc2c3ccccc3nc3ccccc23)cn1	–	> 61.7 µM	–	> 100 µM	–	> 100 µM	–	58.4 µM	–	32.3 µM	–	–	–	–
Oc1ccc(Oc2cnc3ccccc3n2)cc1	26.3 µM	> 100 µM	> 100 µM	> 100 µM	38.2 µM	> 100 µM	> 100 µM	> 100 µM	66.6 µM	> 100 µM	–	–	–	–
COC(=O)c1c[nH]cc1CCCCc1c[nH]cc1C(=O)OC	–	> 100 µM	–	–	–	> 100 µM	–	> 100 µM	–	–	–	> 100 µM	> 100 µM	–
COc1cc2c3c(n(CCCN(C)CCO)c(=O)c2cc1OC)-c1cc2c(cc1C3=O)OCO2	–	–	3.21 µM	31.5 µM	0.672 µM	> 100 µM	> 80.2 µM	> 100 µM	3.41 µM	> 57.9 µM	–	–	–	–
COc1ccc(-c2cc(Nc3ccnc(N4CCOCC4)n3)on2)cc1	0.2 µM	1.88 µM	0.143 µM	5.76 µM	0.171 µM	5.95 µM	4.1 µM	19.9 µM	0.742 µM	13.8 µM	–	–	–	–
CC(=O)NC1CONC1=O (stereo not given)	–	> 100 µM	–	> 100 µM	–	> 100 µM	–	> 100 µM	–	> 100 µM	–	–	–	–
CCc1nc(Cl)c(Cl)c(Cl)n1	–	> 100 µM	–	> 100 µM	–	> 100 µM	–	> 100 µM	–	> 100 µM	–	–	–	–
CC(C)(C)c1cc(C(=O)/C=C/c2ccc(C(=O)O)cc2)cc(C(C)(C)C)c1	–	> 100 µM	–	6.8 µM	–	7.29 µM	–	6.83 µM	–	17.8 µM	–	–	–	–
